Source: US20090221653A1, “7-(2-amino-1-hydroxy-ethyl)-4-hydroxybenzothiazol-2(3H)-one-derivatives as beta2 adrenoreceptor agonists” (AstraZeneca AB, priority 2005, published 2009)
pEC50: −log10 of the molar value. Where a name gives a salt, the structure may show the parent alone.

Columns and labels:
[1] = target: T1, Adrenergic β2 (Homo sapiens, UniProt P07550); assay: Alternative Adrenergic β2 Mediated cAMP Production in H292 cells (AlphaScreen cAMP detection); type: cell-based; settings: for EC50: cAMP, test compounds incubated 60 minutes, 300 μM rolipram, read-out: β2 pEC50 (converted); for β2 Int Act: fraction relative to the maximum activity determined for formoterol, 60 minutes incubation
T1 construct: endogenous in cells; host or cells: H292 cells

[2] = target: T2, β2 receptor (Homo sapiens, UniProt P07550); assay: Adrenergic β2 mediated cAMP production in H292 cells (AlphaScreen cAMP detection); type: cell-based; settings: for pEC50: cAMP, test compounds incubated 10 minutes, 300 μM rolipram; for Intrinsic Activity: fraction relative to the maximum activity determined for formoterol, 10 minutes incubation
T2 construct: endogenous in cells; host or cells: H292 cells
Description: H292 cells were grown in RPMI (Roswell Park Memorial Institute) medium containing, 10% (v/v) FBS (foetal bovine serum) and 2 mM L-glutamine. Cells were grown in 225 cm2 flasks containing 25 mL media in a humidified incubator at 37° C., 5% CO2. Cells were harvested from the flask and passaged at a 1 in 10 dilution once per week.
The media from flasks containing H292 cells was removed, rinsed with 10 mL PBS (phosphate buffered saline) and replaced with 10 mL Accutase™ cell detachment solution. Flasks were incubated for 15 minutes in a humidified incubator at 37° C., 5% CO2. The cell suspension was counted and the cells re-suspended in RPMI media (containing 10% (v/v) FBS and 2 mM L-glutamine) at 0.05×10^6 cells per mL. 5000 cells in 100 μL were added to each well of a tissue-culture-treated 96-well plate and the cells incubated overnight in a humidified incubator at 37° C., 5% CO2. The culture media was removed, washed twice with 100 μL assay buffer and replaced with 50 μL assay buffer. Cells were rested at room temperature for 20 minutes after which time 25 μL of rolipram (1.2 mM made up in assay buffer containing 2.4% (v/v) dimethylsulphoxide) was added. Cells were incubated with rolipram for 10 minutes after which time test compounds (made up as ×4 concentrated stocks in assay buffer containing 4% (v/v) dimethylsulphoxide) were added and the cells were incubated for 10 minutes at room temperature. Final rolipram concentration in the assay was 300 μM and final vehicle concentration was 1.6% (v/v) dimethylsulphoxide. The reaction was stopped by removing supernatants, washing once with 100 μL assay buffer and replacing with 50 μL lysis buffer. The cell monolayer was frozen at −80° C. for 30 minutes (or overnight).
The concentration of cAMP (cyclic adenosine monophosphate) in the cell lysate was determined using the AlphaScreen™ methodology. The frozen cell plate was thawed for 20 minutes on a plate shaker then 10 μL of the cell lysate was transferred to a 96-well white plate. 40 μL of mixed AlphaScreen™ detection beads (containing equal volumes of donor beads (pre-incubated with biotinylated cAMP in the dark for 30 minutes) and acceptor beads), was added to each well and the plate incubated at room temperature for 10 hours in the dark. The AlphaScreen™ signal was measured using an EnVision spectrophotometer (Perkin-Elmer Inc.) with the recommended manufacturer's settings. cAMP concentrations were determined by reference to a calibration curve determined in the same experiment using standard cAMP concentrations (made up in lysis buffer in a 96-well tissue-culture-treated plate and frozen/thawed alongside the test samples) and detected using the same protocol. Concentration response curves for agonists were constructed to determine both the pEC50 and Intrinsic Activity.

T2 sequence (P07550 whole entry): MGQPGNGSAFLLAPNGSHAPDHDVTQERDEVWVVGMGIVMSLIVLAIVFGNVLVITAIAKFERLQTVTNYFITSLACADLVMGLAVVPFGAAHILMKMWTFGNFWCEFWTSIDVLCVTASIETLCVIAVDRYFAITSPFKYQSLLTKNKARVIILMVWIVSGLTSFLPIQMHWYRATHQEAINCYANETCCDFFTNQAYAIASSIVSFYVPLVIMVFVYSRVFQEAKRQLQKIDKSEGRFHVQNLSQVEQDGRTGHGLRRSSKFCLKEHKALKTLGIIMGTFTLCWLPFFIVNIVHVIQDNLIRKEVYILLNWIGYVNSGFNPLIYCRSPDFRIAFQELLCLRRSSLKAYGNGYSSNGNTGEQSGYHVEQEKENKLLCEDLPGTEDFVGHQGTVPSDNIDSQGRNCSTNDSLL
T1 sequence (P07550 whole entry): as above

Row | EC50 [1] [nM] | β2 Int Act [1] | pEC50 [2] | Intrinsic Activity [2] | SMILES
1 | 0.158 | 1 | 9.80 | 1.0 | O=c1[nH]c2c(O)ccc([C@@H](O)CNCCCS(=O)(=O)CCOCCc3cccc4ccccc34)c2s1 [Example 2, 4-Hydroxy-7-((1R)-1-hydroxy-2-{[3-({2-[2-(1-naphthyl)ethoxy]ethyl}sulfonyl)propyl]-amino}ethyl)-1,3-benzothiazol-2(3H)-one trifluoroacetate]
2 | 0.1 | 0.9 | 10.00 | 0.9 | Cl.O=c1[nH]c2c(O)ccc([C@@H](O)CNCCSCCOCCc3cccc4ccccc34)c2s1 [Example 4, 4-Hydroxy-7-((1R)-1-hydroxy-2-{[2-({2-[2-(1-naphthyl)ethoxy]ethyl}thio)ethyl]-amino}ethyl)-1,3-benzothiazol-2(3H)-one hydrochloride]
